The values below are quoted from earlier work in patent US20230131804A1, “FARNESOID X RECEPTOR AGONISTS FOR THE TREATMENT OF DISEASE” (Metacrine, Inc., priority 2020, published 2023).

“Also recorded” adds a separate entry of the source.

For this series the following is noted: published clinical studies, higher administered doses; cited from earlier work.

Regarding `CC[C@H]1[C@@H](O)[C@@H]2[C@H](CC[C@]3(C)[C@@H]([C@H](C)CCC(=O)O)CC[C@@H]23)[C@@]2(C)CC[C@@H](O)C[C@@H]12` [OCA, Obeticholic acid], the adverse side effects entry was “pruritis, increased LDL cholesterol and liver toxicity; also recorded: adverse effects of increased LDL cholesterol and liver toxicity”.
